Measurements as given in patent EP3628672A1 (priority 2018, dated 2020).
Like-named read-outs stand apart in the source and are kept apart here.

How the values were obtained:
[1] = biological target: T1, purified LasB protein from P. aeruginosa (Pseudomonas aeruginosa, UniProt P14756); test: Fluorometric assay to determine Ki (Abz-Ala-Gly-Leu-Ala-p-Nitro-Benzyl-Amide substrate); format: biochemical
T1 construct: purchased Merck or Charles River Laboratories
Protocol: (§1) Experiments were therefore conducted (1) to measure the potency of inhibition of compounds of the invention against purified Pseudomonas aeruginosa LasB enzyme and also experiments were conducted (2) to measure the ability of compounds of the invention to inhibit LasB-catalysed elastin degradation. The first assay uses a commercial fluorescent synthetic peptide and purified LasB enzyme. The LasB hydrolysis kinetics are measured allowing the determination of the IC50 and Ki of the inhibitors; the second is a more physiological assay using dialysed Pseudomonas aeruginosa supernatant as source of enzyme, plus its natural substrate Elastin. It is an "end point assay" that determines the percentage of LasB inhibition by each compound for one particular time point and inhibitor concentration. Technical details are described below:
This assay uses commercially available substrate (Abz-Ala-Gly-Leu-Ala-p-Nitro-Benzyl-Amide (Ex: 340 nm, Em: 415 nm) from Peptide International) and purified LasB protein from P. aeruginosa (provided by Merck or Charles River Laboratories). It is performed to determine LasB elastase activity and assess compound inhibition in 96-well plate format. All compounds of Formula (I) were assessed using the method described below.
Method: 10 to 140 ng/ml purified LasB is incubated with 250 µM Abz-Ala-Gly-Leu-Ala-p-Nitro-Benzyl-Amide in 50 mM Tris-HCl pH 7.4, 2.5 mM CaCl2, 0.01% of Triton X100 at 37°C. LasB activity (corresponding to fluorescence emission induced by substrate hydrolysis) is measured over 30 min at 37°C with a fluorescence plate reader such as the Perkin Elmer Envision or similar. Different range of inhibitor concentrations are routinely assessed depending of inhibitor potency from 0.0016 to 200 µM (2-fold dilutions series) in order to determine IC50.
The equation used to calculate the Ki from IC50 is: Ki = IC50 / (1+([S]/Km)) where [S] = 250 µM and Km = 214 µM.

LasB = biological target: T2, LasB (Pseudomonas aeruginosa, UniProt P14756); test: Elastin assay to determine % inhibition (Elastin Congo-Red, dialysed culture supernatant); format: biochemical, P. aeruginosa PAO1; details: read-out: Elastin hydrolysis % inhibition @ 50 / 25 µM inhibitor concentration
T2 construct: uses as source of enzyme dialysed supernatant from P. aeruginosa PAO1; endogenous in cells; host or cells: P. aeruginosa PAO1 culture supernatant, filtered and dialysed
Protocol: as §1
The Elastin assay uses as source of enzyme dialysed supernatant from P. aeruginosa PAO1 and the Elastin Congo-Red as substrate. The natural LasB substrate, elastin, is complexed with the congo-red dye (Elastin Congo-Red, ECR). The elastolysis activity from the culture supernatant will degrade elastin and release the congo-red dye into the supernatant. This red dye release can be measured with a spectrophotometer.
Method: To determine LasB elastase activity and assess compound inhibition, an overnight culture of P. aeruginosa strain PAO1 is diluted in LB medium. After reaching an OD600nm of 0.6, this culture is diluted and incubated for additional 18-24 hours in a shaking incubator. Culture supernatants are recovered by centrifugation and filtrated through a […] filter. These supernatants are dialysed (filtration molecules < 20kDa) into a 50 mM Tris-HCl pH 7.4, 2.5 mM CaCl2 solution at 4°C under agitation for 24 hours. Supernatant dialysed is then mixed volume/volume with the ECR suspension (20 mg/mL of ECR in 100 mM Tris-HCl pH 7.4 buffer supplemented with 1 mM CaCl2) supplemented with Triton X100 (final concentration of 0.01%) in presence of DMSO (positive control) and/or different concentrations of compound (routinely 50 to 1.56 µM). As a negative control, the dialysed supernatant is replaced by Tris-HCl solution (50 mM Tris-HCl pH 7.4, 2.5 mM CaCl2). The mixed reaction is then incubated overnight in a 37°C shaking incubator. The reaction supernatant is recovered by centrifugation and the release of congo-red is measured by its absorbance at 495 nm (OD495nm).
Percentage inhibition is determined using the following equation: ((OD495nmvalue of positive control−OD495nmvalue of negative control)−(OD495nmvalue of treated supernatant−OD495nmvalue of positive control))/(OD495nmvalue of positive control−OD495nmvalue of negative control) × 100. [formula]

T2 sequence (P14756 198-498): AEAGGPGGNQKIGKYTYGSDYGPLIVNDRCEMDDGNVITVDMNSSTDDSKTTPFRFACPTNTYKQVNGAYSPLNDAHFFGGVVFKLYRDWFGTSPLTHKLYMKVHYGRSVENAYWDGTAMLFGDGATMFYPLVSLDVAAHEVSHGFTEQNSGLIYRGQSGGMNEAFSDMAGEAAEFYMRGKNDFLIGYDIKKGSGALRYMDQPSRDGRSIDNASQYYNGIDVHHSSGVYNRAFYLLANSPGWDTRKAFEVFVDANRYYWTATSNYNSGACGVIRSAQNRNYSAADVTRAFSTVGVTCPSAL
T1 sequence (P14756 198-498): as above

Row | Structure (SMILES) | Ki [1] | inhibition at 25 µM (LasB) | Ki ([1]; Ki calculated from IC50, [S] = 250 µM, Km = 214 µM, 37°C, pH 7.4)
1 | CN1CCN(C(=O)CN2CCN(c3ccc(-c4csc(CNC(=O)C5(CC(=O)O)Cc6ccccc6C5)n4)cc3)CC2)CC1 [Example 36, 2-[2-[[4-[4-[4-[2-(4-methylpiperazin-1-yl)-2-oxo-ethyl]piperazin-1-yl]phenyl]thiazol-2-yl]methylcarbamoyl]indan-2-yl]acetic acid] | < 0.05 µM | > 75% | 
2 | CN(C)CC#Cc1ccc(-c2csc(CNC(=O)C3(CC(=O)O)Cc4ccccc4C3)n2)cc1 [Example 37, 2-[2-[[4-[4-[3-(dimethylamino)prop-1-ynyl]phenyl]thiazol-2-yl]methylcarbamoyl]indan-2-yl]acetic acid] | 0.05 to 0.2 µM | 60 to 75% | 
3 | CN1CCN(C(=O)COc2ccc(-c3csc(CNC(=O)C4(CC(=O)O)Cc5ccccc5C4)n3)cn2)CC1 [Example 38, 2-[2-[[4-[6-[2-(4-methylpiperazin-1-yl)-2-oxo-ethoxy]-3-pyridyl]thiazol-2-yl]methylcarbamoyl]indan-2-yl]acetic acid] | 0.05 to 0.2 µM | 60 to 75% | 
4 | CN(C)CC(=O)Nc1ccc(-c2csc(CNC(=O)C3(CC(=O)O)Cc4ccccc4C3)n2)cc1 [Example 39, 2-[2-[[4-[4-[[2-(dimethylamino)acetyl]amino]phenyl]thiazol-2-yl]methylcarbamoyl]indan-2-yl]acetic acid] | 0.05 to 0.2 µM | 60 to 75% | 
5 | CN1CCC(C(=O)Nc2ccc(-c3csc(CNC(=O)C4(CC(=O)O)Cc5ccccc5C4)n3)cc2)CC1 [Example 43, 2-[2-[[4-[4-[(1-methylpiperidine-4-carbonyl)amino]phenyl]thiazol-2-yl]methylcarbamoyl]indan-2-yl]acetic acid] | 0.2 to 10 µM | 60 to 75% | 
6 | CN1CCN(C(=O)Nc2ccc(-c3csc(CNC(=O)C4(CC(=O)O)Cc5ccccc5C4)n3)cc2)CC1 [Example 44, 2-[2-[[4-[4-[(4-methylpiperazine-1-carbonyl)amino]phenyl]thiazol-2-yl]methylcarbamoyl]indan-2-yl]acetic acid] | 0.05 to 0.2 µM | 60 to 75% | 
7 | CN1CCN(CC(=O)Nc2ccc(-c3csc(CNC(=O)C4(CC(=O)O)Cc5ccccc5C4)n3)cc2)CC1 [Example 45, 2-[2-[[4-[4-[[2-(4-methylpiperazin-1-yl)acetyl]amino]phenyl]thiazol-2-yl]methylcarbamoyl]indan-2-yl]acetic acid] | 0.05 to 0.2 µM | 60 to 75% | 
8 | CN1CCN(C(=O)COc2ccc(-c3csc(CNC(=O)C4(CC(=O)O)Cc5ccccc5C4)n3)cc2)CC1 [Example 46, 2-[2-[[4-[4-[2-(4-methylpiperazin-1-yl)-2-oxo-ethoxy]phenyl]thiazol-2-yl]methylcarbamoyl]indan-2-yl]acetic acid] | 0.05 to 0.2 µM | > 75% | 
9 | C[N+]1(C)CCN(C(=O)COc2ccc(-c3csc(CNC(=O)C4(CC(=O)[O-])Cc5ccccc5C4)n3)cc2)CC1 [Example 47, 2-[2-[[4-[4-[2-(4,4-dimethylpiperazin-4-ium-1-yl)-2-oxo-ethoxy]phenyl]thiazol-2-yl]methylcarbamoyl]indan-2-yl]acetate] | 0.2 to 10 µM | 60 to 75% | 
10 | O=C(O)CC1(C(=O)NCc2nc(-c3ccc(OCCN4CCOCC4)cc3)cs2)Cc2ccccc2C1 [Example 49, 2-[2-[[4-[4-(2-morpholinoethoxy)phenyl]thiazol-2-yl]methylcarbamoyl]indan-2-yl]acetic acid] | 0.05 to 0.2 µM | 60 to 75% | 
11 | C[N+]1(CCOc2ccc(-c3csc(CNC(=O)C4(CC(=O)[O-])Cc5ccccc5C4)n3)cc2)CCOCC1 [Example 50, 2-[2-[[4-[4-[2-(4-methylmorpholin-4-ium-4-yl)ethoxy]phenyl]thiazol-2-yl]methylcarbamoyl]indan-2-yl]acetate] | 0.2 to 10 µM | 60 to 75% | 
12 | C[n+]1ccc(COc2ccc(-c3csc(CNC(=O)C4(CC(=O)[O-])Cc5ccccc5C4)n3)cc2)cc1 [Example 51, 2-[2-[[4-[4-[(1-methylpyridin-1-ium-4-yl)methoxy]phenyl]thiazol-2-yl]methylcarbamoyl]indan-2-yl]acetate] | 0.05 to 0.2 µM | 60 to 75% | 
13 | CN1CCN(C(=O)COc2cccc(-c3csc(CNC(=O)C4(CC(=O)O)Cc5ccccc5C4)n3)c2)CC1 [Example 54, 2-[2-[[4-[3-[2-(4-methylpiperazin-1-yl)-2-oxo-ethoxy]phenyl]thiazol-2-yl]methylcarbamoyl]indan-2-yl]acetic acid] |  | 60 to 75% | 0.2 to 10 µM
14 | O=C(O)CC1(C(=O)NCc2nc(-c3ccc(OCCCN4CCOCC4)cc3)cs2)Cc2ccccc2C1 [Example 55, 2-[2-[[4-[4-(3-morpholinopropoxy)phenyl]thiazol-2-yl]methylcarbamoyl]indan-2-yl]acetic acid] | 0.05 to 0.2 µM | 60 to 75% | 
15 | C[N+]1(CCCOc2ccc(-c3csc(CNC(=O)C4(CC(=O)[O-])Cc5ccccc5C4)n3)cc2)CCOCC1 [Example 56, 2-[2-[[4-[4-[3-(4-methylmorpholin-4-ium-4-yl)propoxy]phenyl]thiazol-2-yl]methylcarbarmoyl]indan-2-yl]acetate] | 0.05 to 0.2 µM | 60 to 75% | 
16 | CN1CCN(CCCOc2ccc(-c3csc(CNC(=O)C4(CC(=O)O)Cc5ccccc5C4)n3)cc2)CC1 [Example 57, 2-[2-[[4-[4-[3-(4-methylpiperazin-1-yl)propoxy]phenyl]thiazol-2-yl]methylcarbamoyl]indan-2-yl]acetic acid] | 0.05 to 0.2 µM | 60 to 75% | 
17 | O=C(O)CC1(C(=O)NCc2nc(-c3ccc(OCCCN4CCCC4)cc3)cs2)Cc2ccccc2C1 [Example 58, 2-[2-[[4-[4-(3-pyrrolidin-1-ylpropoxy)phenyl]thiazol-2-yl]methylcarbamoyl]indan-2-yl]acetic acid] | 0.05 to 0.2 µM | 60 to 75% | 
18 | O=C([O-])CC1(C(=O)NCc2nc(-c3ccc(OCCC[n+]4ccccc4)cc3)cs2)Cc2ccccc2C1 [Example 59, 2-[2-[[4-[4-(3-pyridm-1-ium-1-ylpropoxy)phenyl]thiazol-2-yl]methylcarbamoyl]indan-2-yl]acetate] | 0.05 to 0.2 µM | 60 to 75% | 
19 | CS(=O)(=O)c1cc(-c2csc(CNC(=O)C3(CC(=O)O)Cc4ccccc4C3)n2)ccc1OCCCN1CCOCC1 [Example 60, 2-[2-[[4-[3-methylsulfonyl-4-(3-morpholinopropoxy)phenyl]thiazol-2-yl]methylcarbamoyl]indan-2-yl]acetic acid] | < 0.05 µM | 60 to 75% | 
20 | C[N+]1(CCCOc2ccc(-c3csc(CNC(=O)C4(CC(=O)[O-])Cc5ccccc5C4)n3)cc2S(C)(=O)=O)CCOCC1 [Example 61, 2-[2-[[4-[4-[3-(4-methylmorpholin-4-ium-4-yl)propoxy]-3-methylsulfonyl-phenyl]thiazol-2-yl]methylcarbamoyl]indan-2-yl]acetate] | 0.05 to 0.2 µM | 60 to 75% | 
21 | C[N+]1(CCCOc2ccc(-c3csc(CNC(=O)C4(CC(=O)[O-])Cc5cc(F)c(F)cc5C4)n3)cc2S(C)(=O)=O)CCOCC1 [Example 62, 2-[5,6-difluoro-2-[[4-[4-[3-(4-methylmorpholin-4-ium-4-yl)propoxy]-3-methylsulfonyl-phenyl]thiazol-2-yl]methylcarbamoyl]indan-2-yl]acetate] | 0.05 to 0.2 µM | 60 to 75% | 
